The source of these data is patent US20220265683A1, “HALOGENATED SALICYLANILIDES FOR THE TREATMENT OF DERMATITIS” (priority 2018, published 2022).

The subject of assay [1] is skin barrier and inflammation biomarkers in lesional skin biopsies. Description: Biomarker gene expression in lesional skin biopsies by microarray (Affymetrix U133A Plus 2), Example 3. The class given is in vivo, human. On the procedure:
(§1) Patients received topical applications of a niclosamide 2% composition and vehicle once daily for 3 weeks, followed by a 1-week follow up period. Topical niclosamide 2% and vehicle was applied on two separate target lesions of atopic dermatitis (lesions of at least 3×3-cm that are at least 2 cm apart, excluding the face, scalp, genitals, hands, and feet). The application areas (5×5-cm) were randomized (1:1) to once daily application of niclosamide 2% or vehicle at 5 mg/cm^2 without occlusion 6 days per week. Patients came to the study site for all study product application for a total of 3 weeks.
(§2) Three skin biopsies were collected in all patients (one from lesional skin at baseline, pre-dosing at Day 1, and two from lesional skin at Day 22 (one where topical niclosamide 2% had been applied and one where the vehicle had been applied). The lesional skin biopsies were analysed for skin thickness and inflammation biomarkers.
(§3) The skin biopsy samples were analysed by immunohistochemistry (IHC), and by gene expression studies by RT-PCR using TaqMan Low Density Array (TLDA), and by microarray using Affymetrix U133A Plus 2. The immunohistochemistry (IHC) was used to analyse cell biomarkers. The methodologies as disclosed by Guttman-Yassky et al, “Major differences in inflammatory dendritic cells and their products distinguish atopic dermatitis from psoriasis”, The Journal of Allergy and Clinical Immunology, vol. 119, issue 5, pages 1210-1217, 2007, were followed except for that U133A Plus 2-set Gene Chip probe arrays was used instead of U95A-set Gene Chip probe arrays.
Experimental design: The hybridization strategy was in concordance with experimental design principles, by for example keeping all samples from the same patient in the same date, and always include samples from every treatment arm/group.
Quality Control and Pre-processing: Quality control of microarray chips were carried out using standard QC metrics and R package microarray Quality Control. Expression measures were obtained using GCRMA algorithm (Wu & Irizarry, 2004). Several visual and modelling techniques were used to elucidate if batch effect existed. Principal Component analysis plots were used to detect if any evident batch effect existed. If such batch effects were found, they were adjusted using Combat, an empirical Bayes method for adjusting data for batch effects that is robust to outliers in small sample sizes (Johnson, Li, & Rabinovic, 2007). The implementation of Combat by package sva was used.
Probe-sets with at least 5% samples with expression larger than 3 (in log 2-scale) were kept for further analysis. Expression values were modelled using mixed-effect models with fixed factors Visit and Treatment Area and a random effect for each patient. Fold changes for the comparisons of interest were estimated and hypothesis testing was conducted on such comparisons using contrasts under the general framework for linear models in limma package. The inter-replicate correlation was computed by Duplicate Correlation function and the linear model was estimated by ImFit. P-values from the moderated (paired) t-test were adjusted for multiple hypotheses using the Benjamini-Hochberg procedure, which controls for FDR.

The next assay concerns dendritic cells. As to conditions: in-vitro; cited from earlier work.
In assay [2] the test system is skin barrier and inflammation biomarkers in lesional skin biopsies. Nature of the assay: Biomarker gene expression in lesional skin biopsies by qRT-PCR (TLDA), Example 3. The class given is in vivo, human. As to conditions: only responder population, 3 weeks. As for the experimental part: as §1, §2
Skin barrier and inflammation biomarker levels were determined from lesional skin biopsies from application areas.
as §3
Expression values (threshold cycle [Ct]) were normalized to Rplp0 by negatively transforming the Ct values to −dCt (IL17A was normalized to hARP, as analysed by qPCR). The undetected −dCt values were estimated for each gene as the 20% of the minimum across all samples. qRT-PCR expression data were modelled using a mixed effect model with Visit and Treatment Area as a fixed effect and a random intercept for each patient. This formulation intrinsically models the within patient correlation structure as in the case of a paired t-test. This approach introduces less bias than restricting the analysis for those patients who completed the study. Contrasts were used to estimate the fold changes with treatment within each treatment group and conduct hypothesis testing.
(In general: Real-time PCR tracks product formation cycle by cycle.)

Assay [3] relates to CD3, langerin, CD11c and FceR1 cells in skin biopsies. Nature of the assay: Immunohistochemistry (IHC) of cell markers in lesional skin biopsies, Example 3. It counts as in vivo, human. As to conditions: Day 22, 2% topical. On the procedure: as §2, §3
Assay [4] has as its system biomarkers in lesional AD skin. Particulars: 4 weeks, qRT-PCR; cited from earlier work.
The mark [5] stands for this setting: microarray fold change, Day 22, sign as niclosamide vs vehicle.
Setting [6] is: only responder population, 3 weeks, Microarray.

Marks after values point to notes of the source that are not given here.

`O=C(Nc1ccc([N+](=O)[O-])cc1Cl)c1cc(Cl)ccc1O` [Niclosamide, niclosamide]: in assay [1] (setting [5]), the “CXCL1, 2% niclosamide compared to vehicle” value is −2.10 and the “S100A12, 2% niclosamide compared to vehicle” value is reported as −2.30. In assay [1] (setting [6]), the “CD3d, Niclosamide 2% qd vs. predose” value is given as −2.2^d; the “IL4R, Niclosamide 2% qd vs. predose” value is listed as −2.19^d; the “IL15, Niclosamide 2% qd vs. predose” value is reported as −1.59^d; the “IL22, Niclosamide 2% qd vs. predose” value is −2.1^d. Besides, in assay [1] (setting [6]), the “JAK3, Niclosamide 2% qd vs. predose” value was −1.86^d; the “S100A8, Niclosamide 2% qd vs. predose” value is −1.82^d; the “S100A9, Niclosamide 2% qd vs. predose” value is −5.15^d; the “STAT3, Niclosamide 2% qd vs. predose” value is reported as −1.54^d. Also, the “LPS-induced dendritic cell maturation, cytokine, costimulatory and MHC molecule expression” value in the assay on dendritic cells was “inhibitory action”. Moreover, in assay [2], the “CCL17, Niclosamide 2% qd vs. predose” value was −3.42^d; the “CCL18, Niclosamide 2% qd vs. predose” value was −3.46^d; the “CCL20, Niclosamide 2% qd vs. predose” value was −2^d; the “CCL22, Niclosamide 2% qd vs. predose” value is on record as −2.56^d. Further, in assay [2], the “CXCL1, Niclosamide 2% qd vs. predose” value is listed as −3.82^d; the “CXCL2, Niclosamide 2% qd vs. predose” value is −2.11^d; the “CXCL10, Niclosamide 2% qd vs. predose” value is given as −1.96^d; the “DEFB4B, Niclosamide 2% qd vs. predose” value was −7.18^c. Also, in assay [2], the “FLG, Niclosamide 2% qd vs. predose” value was 2.06^e; the “IL5, Niclosamide 2% qd vs. predose” value was −3.69^d; the “IL10, Niclosamide 2% qd vs. predose” value is recorded as −2.16^d; the “IL13, Niclosamide 2% qd vs. predose” value is listed as −3.18^d. For the same molecule, in assay [2], the “IL17A, Niclosamide 2% qd vs. predose” value is −3.12^d; the “IL17C, Niclosamide 2% qd vs. predose” value is recorded as −3.91^d; the “IL19, Niclosamide 2% qd vs. predose” value is on record as −6.65^c; the “K16/KRT16, Niclosamide 2% qd vs. predose” value is −8.46^c. In assay [2], the “LOR, Niclosamide 2% qd vs. predose” value was 2.84^f; the “MMP12, Niclosamide 2% qd vs. predose” value is on record as −5.12^c; the “PI3, Niclosamide 2% qd vs. predose” value was −11.2^b; the “S100A12, Niclosamide 2% qd vs. predose” value is reported as −10.5^b. In assay [3], the “inflammatory cells (dendritic cells: CD11c, FceR1 in epidermis; Langerhans cells: langerin/CD207) compared to baseline” value is “Significant reductions in inflammatory cells”; the “total amount of T cells (dermis and epidermis) compared to baseline” value is “No significant change”.

For the molecule “Dupilumab: inhibits interleukin-4 and interleukin-13 signalling by binding to interleukin-4 receptor α”, in assay [4], the “CCL17, Dupilumab 300 mg vs. predose” value was −9.2^b; the “CCL18, Dupilumab 300 mg vs. predose” value is −7.6^c; the “CCL22, Dupilumab 300 mg vs. predose” value was −2.1^d; the “CCL26, Dupilumab 300 mg vs. predose” value is reported as −6.3^c. In assay [4], the “K16/KRT16, Dupilumab 300 mg vs. predose” value was −10.7^b; the “MMP12, Dupilumab 300 mg vs. predose” value is recorded as −14^b; the “S100A8, Dupilumab 300 mg vs. predose” value is on record as −3^d; the “S100A12, Dupilumab 300 mg vs. predose” value is −10.4^b.
